Measured values published in PubChem BioAssay (NCI).
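In this assay, cells in 96-well plates receive the compound at five concentrations for 48 hours. Endpoints are linearly interpolated between the surrounding concentrations. The concentration for full growth arrest is given as TGI.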

Key:
Assay in all cases: NCI anticancer screen, dose series, 48 h
OVCAR-3 ovarian = system: OVCAR-3 ovarian
MCF7 breast = system: MCF7 breast
HT29 colon = system: HT29 colon
MDA-MB-435 = system: MDA-MB-435
HCT-15 colon = system: HCT-15 colon
SK-MEL-5 melanoma = system: SK-MEL-5 melanoma
UACC-62 melanoma = system: UACC-62 melanoma
OVCAR-8 ovarian = system: OVCAR-8 ovarian
HCT-116 colon = system: HCT-116 colon
SK-OV-3 ovarian = system: SK-OV-3 ovarian
BT-549 breast = system: BT-549 breast

Structure (SMILES)	TGI (OVCAR-3 ovarian) [µM]	TGI (MCF7 breast) [µM]	TGI (HT29 colon) [µM]	TGI (MDA-MB-435) [µM]	TGI (HCT-15 colon) [µM]	TGI (SK-MEL-5 melanoma) [µM]	TGI (UACC-62 melanoma) [µM]	TGI (OVCAR-8 ovarian) [µM]	TGI (HCT-116 colon) [µM]	TGI (SK-OV-3 ovarian) [µM]	TGI (BT-549 breast) [µM]
CC(=O)c1ccc(Nc2c3c(nc4ccccc24)CCCC3)cc1	> 44.7	> 100	42.6	13.8	> 100	> 59.2	> 56	70.9	> 72	> 70.8	> 41.3
C=C1CC[C@@H](CCC2CCC3(OC2)O[C@]2(O)CC[C@@]3(C)OC2(C)C)C(C)(C)[C@H]1C/C=C1\CCOC1=O (stereo partly drawn)	54.8	28.9	31.1	86.4	> 81.4	4.93	> 100	> 100	22.5	> 100	49.1
COC(=O)[C@H](Cc1ccccc1)NC(=O)c1ccc(CNC(=O)/C=C/c2csc(-c3ccccc3)n2)cc1	26.3	32	43.1	> 36.7	> 60.4	14.7	31.1	> 65.4	> 51.7	> 65.5	> 100
CCN(/C=C1/C(=O)C(c2ccccc2)N(c2ccccc2)C1=O)CC (stereo not drawn)	> 10	> 10	> 10	> 10	> 10	> 10	> 10	> 10	> 10	> 10	> 10
COc1ccc(/C(Nc2ccccc2)=C(\CCl)c2ccccc2)cc1OC	> 100	> 100	> 100	> 100	> 100	72.2	> 100	> 100	48.9	> 100	> 100
COC(=O)c1cc(S(=O)(=O)NC2=NCC(C)NN2)c(S)cc1Cl (stereo not drawn)	> 100	> 100	> 100	> 100	> 100	82.3	> 100	> 100	> 100	> 100	> 100
C[C@H]1CC[C@@]2(OC1)O[C@H]1C[C@H]3[C@@H]4CC[C@@H]5C[C@@H](OC6OC(CO)C(O)C(O)C6OC6OC(CO)C(O)C(O)C6O)CC[C@]5(C)[C@H]4CC[C@]3(C)[C@H]1[C@@H]2C (stereo partly drawn)	3.88	3.8	3.68	3.88	3.67	3.93	4.16	4.26	3.7	3.29	4.1
O=C(c1ccc(Cl)cc1)N(C(=O)N1CCCCC1)c1ccccc1	> 100	> 100	> 100	> 100	> 100	> 100	> 100	> 100	> 100	> 100	> 100
